The results in this text go back to US20250177349A1, “ARYL ALKYNAMIDE DERIVATIVES” (Astellas Pharma, Inc., priority 2022, published 2025).

In the assay the test system is drug-induced Sjogren's syndrome-like salivary dysfunction. Description: Test on drug-induced Sjogren's syndrome-like salivary dysfunction in mice. The settings on record: female C57BL/6J mice, DMXAA 20 mg/kg s.c. four times weekly, test compound orally once a day for 8 days; FIGS. 1-3. In kind it is in vivo. On the procedure:
Female C57BL/6J mice (8-10-weeks-old) were injected subcutaneously with 20 mg/kg of DMXAA or its vehicle, 5% NaHCO3, four times at weekly intervals. From the day after the last DMXAA challenge, mice were orally administered the test compound or its vehicle once a day for 8 days. On the following day, saliva was collected from mice using a cotton swab under awake conditions, and saliva weight during 15 min was measured and evaluated as an indicator of salivary gland function.
In the case of `NC(=O)C1CCN(C(=O)C#Cc2ccc(-c3ccccc3)c(C(F)(F)F)c2)CC1` [Example 34, 1-{3-[2-(trifluoromethyl)[1,1′-biphenyl]-4-yl]prop-2-ynoyl}piperidine-4-carboxamide], the “saliva production (saliva weight during 15 min)” value was “significantly improved saliva production”.
Next, `N=S1(=O)CCN(C(=O)C#Cc2ccc(-c3ccccc3)c(C(F)(F)F)c2)CC1` [Example 99, 1-imino-4-{3-[2-(trifluoromethyl)[1,1′-biphenyl]-4-yl]prop-2-ynoyl}-1λ^6-thiomorpholin-1-one]: “significantly improved saliva production”.
Take `O=C(C#Cc1ccc(-c2ccccc2)c(C(F)(F)F)c1)N1C[C@@H](O)[C@@H](O)C1` [Example 33, 1-[(3R,4S)-3,4-dihydroxypyrrolidin-1-yl]-3-[2-(trifluoromethyl)[1,1′-biphenyl]-4-yl]prop-2-yn-1-one]: the “saliva production (saliva weight during 15 min)” value was “significantly improved saliva production”.
